How the values were obtained:
H2-receptor [1] = biological target: T1, H2-receptor (Homo sapiens, UniProt P25021); settings: cited from earlier work
H2-receptor [2] = biological target: T1, H2-receptor; settings: cited from earlier work; remark: listed apart in the source
[3] = Method: Peripheral blood venous samples were drawn in 10 ml heparinized test tubes before the onset of treatment and weekly thereafter. […] The manufacturer's instructions provided with the kit, dated June, 1989, were followed. Blood histamine levels were measured at the indicated times.
[4] = test system: herpes simplex virus (HSV) type 2; settings: animals inoculated intravenously with HSV; cited from earlier work
[5] = prior reports; cited from earlier work
[6] = Effect of rate and duration of histamine administration on side effects and efficacy; settings: administered over longer than about 30 minutes
[7] = test system: Acute Myelogenous Leukernia; settings: IL-2 as the single agent; cited from earlier work

T1 sequence (P25021 whole entry): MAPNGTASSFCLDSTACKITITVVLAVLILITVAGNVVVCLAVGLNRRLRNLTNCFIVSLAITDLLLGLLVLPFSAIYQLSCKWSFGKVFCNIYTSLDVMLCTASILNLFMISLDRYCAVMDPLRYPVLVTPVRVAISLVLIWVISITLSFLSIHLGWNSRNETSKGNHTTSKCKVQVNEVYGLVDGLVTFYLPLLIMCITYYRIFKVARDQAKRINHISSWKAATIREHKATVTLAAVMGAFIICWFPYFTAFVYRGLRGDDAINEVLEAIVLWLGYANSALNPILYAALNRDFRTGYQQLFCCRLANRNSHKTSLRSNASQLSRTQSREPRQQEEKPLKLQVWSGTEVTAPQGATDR

CN(C)CCCSC(=N)N [dimaprit]
effect of histamine on granulocyte mediated suppression of antibody dependent cytotoxicity of NK cells (H2-receptor [1]): mimicked | NK cell mediated cytotoxicity (H2-receptor [2]): capable of augmenting NK cell mediated cytotoxicity

NCCc1c[nH]cn1 [histamine]
persistence of circulating blood histamine levels ([3]; even after histamine administration was discontinued): remained elevated for sustained periods of time | circulating blood histamine levels following histamine administration ([3]; histamine 0.4-0.7 mg s.c. twice daily with IL-2 for 21 days, samples at least 8 hours after last injection, beneficial = at least 0.2 μmole/L): rose to beneficial levels | survival time [4]: prolong survival time | half life in the blood [5]: five | efficacy on prolonged administration [6]: decreased or lack of efficacy

CNC(=C[N+](=O)[O-])NCCSCc1ccc(CN(C)C)o1 [ranitidine]
effect of histamine on granulocyte mediated suppression of antibody dependent cytotoxicity of NK cells (H2-receptor [1]): blocked

IL-2: cytokine synthesized by T cells; human recombinant interleukin-2 (Proleukin, Eurocetus)
fraction of AML patients with inversion of remission time [7]: < 10%

Reference: patent US6613788B1, “Elevation of circulating blood histamine levels” (Maxim Pharmaceuticals, Inc., priority 1996, dated 2003)
